Common to all, as to settings: JH1 kinase domain, ADP-Glo
On the technique in general: In ADP-Glo the light output rises with the ADP produced.

In assay [1] the target is T1, human JAK1 kinase domain (JH1) (Homo sapiens, UniProt P23458).
T1 construct: recombinantly generated catalytic kinase (also known as JH1) domain of human JAK1, JAK2, JAK3 and TYK2
The experiment in a line: JH1 biochemical assay for JAK1 (ADP-Glo kinase assay, recombinant JH1 catalytic domain, JAK3-342 peptide, 35 μM ATP). The method, then: (§1) Compounds of the disclosure were assessed for their ability to inhibit TYK2, JAK1, JAK2, and JAK3 activity. The inhibitory properties of the compounds of the disclosure described herein can be evidenced by testing in any one of the following protocols.
(§2) The kinase activity of recombinantly generated catalytic kinase (also known as JH1) domain of human JAK1, JAK2, JAK3 and TYK2 were evaluated in a plate-based assay using the ADP-Glo™ Kinase Assay platform. Specifically, 4 nM of recombinant JAK1 kinase domain is used to phosphorylate 50 μM of a JAK3-342 (sequence ALVDGYFRLTT) peptide in the presence of 35 μM ATP. Catalytic activities of recombinant JAK2, JAK3 and TYK2 kinase domain (0.2, 0.3 and 2 nM, respectively) are evaluated by the phosphorylation status of the JAK3-974 (50 μM; sequence LPLDKDYYVVR) peptide with the addition of ATP (15, 4 and 10 μM, respectively). The reactions proceed for 100 minutes and the catalytic activity is quantified by first depleting the unused ATP, converting the hydrolyzed ADP into ATP to generate luminescence in a luciferase reaction; which is the basis of the ADP-Glo platform. Compounds are tested at either 10 μM or 1 μM top concentration, 11 points of 3-fold dilution. The data is normalized and the percent activity versus log concentration of compound is fitted with a 4-parameter logistic model to generate a curve and an IC50 value.

The target in assay [2] is T2, human TYK2 kinase domain (JH1) (Homo sapiens, UniProt P29597).
T2 construct: recombinantly generated catalytic kinase (also known as JH1) domain of human JAK1, JAK2, JAK3 and TYK2
T2 sequence (P29597 897-1176 limits assumed): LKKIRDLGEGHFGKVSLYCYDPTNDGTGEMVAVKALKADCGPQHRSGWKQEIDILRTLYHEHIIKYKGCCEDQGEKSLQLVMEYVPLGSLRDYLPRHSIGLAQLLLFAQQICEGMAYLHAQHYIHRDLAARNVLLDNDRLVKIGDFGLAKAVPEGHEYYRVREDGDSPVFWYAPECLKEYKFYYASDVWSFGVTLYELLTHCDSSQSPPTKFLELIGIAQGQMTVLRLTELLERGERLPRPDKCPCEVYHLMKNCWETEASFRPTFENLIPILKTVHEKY
The experiment in a line: JH1 biochemical assay for TYK2 (ADP-Glo kinase assay, recombinant JH1 catalytic domain, JAK3-974 peptide, 10 μM ATP). The method, then:
as §1, §2

Assay [3] concerns the target T3, human JAK2 kinase domain (JH1) (Homo sapiens, UniProt O60674).
T3 construct: recombinantly generated catalytic kinase (also known as JH1) domain of human JAK1, JAK2, JAK3 and TYK2
Kind of assay: JH1 biochemical assay for JAK2 (ADP-Glo kinase assay, recombinant JH1 catalytic domain, JAK3-974 peptide, 15 μM ATP). The method, then: as §1, §2

For assay [4], the target named is T4, human JAK3 kinase domain (JH1) (Homo sapiens, UniProt P52333).
T4 construct: recombinantly generated catalytic kinase (also known as JH1) domain of human JAK1, JAK2, JAK3 and TYK2
T4 sequence (P52333 822-1111 limits assumed): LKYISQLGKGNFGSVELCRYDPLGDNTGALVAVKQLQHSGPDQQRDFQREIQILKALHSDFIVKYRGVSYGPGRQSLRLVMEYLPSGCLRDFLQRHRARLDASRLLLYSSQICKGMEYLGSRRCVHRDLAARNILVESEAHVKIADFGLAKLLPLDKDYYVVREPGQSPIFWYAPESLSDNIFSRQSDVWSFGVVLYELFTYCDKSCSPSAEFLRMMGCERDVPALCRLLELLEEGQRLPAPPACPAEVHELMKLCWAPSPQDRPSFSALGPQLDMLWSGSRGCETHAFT
The experiment in a line: JH1 biochemical assay for JAK3 (ADP-Glo kinase assay, recombinant JH1 catalytic domain, JAK3-974 peptide, 4 μM ATP). How it is done:
as §1, §2

Structures are written as SMILES.

T3 sequence (O60674 849-1124 limits assumed): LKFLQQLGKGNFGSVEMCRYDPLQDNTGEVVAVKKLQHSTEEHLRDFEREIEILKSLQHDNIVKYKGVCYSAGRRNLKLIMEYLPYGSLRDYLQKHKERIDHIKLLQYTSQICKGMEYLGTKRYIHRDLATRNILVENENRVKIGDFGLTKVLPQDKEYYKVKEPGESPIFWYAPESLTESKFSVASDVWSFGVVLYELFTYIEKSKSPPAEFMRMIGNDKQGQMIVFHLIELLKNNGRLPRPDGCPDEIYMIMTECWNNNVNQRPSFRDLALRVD
T1 sequence (P23458 875-1153 limits assumed): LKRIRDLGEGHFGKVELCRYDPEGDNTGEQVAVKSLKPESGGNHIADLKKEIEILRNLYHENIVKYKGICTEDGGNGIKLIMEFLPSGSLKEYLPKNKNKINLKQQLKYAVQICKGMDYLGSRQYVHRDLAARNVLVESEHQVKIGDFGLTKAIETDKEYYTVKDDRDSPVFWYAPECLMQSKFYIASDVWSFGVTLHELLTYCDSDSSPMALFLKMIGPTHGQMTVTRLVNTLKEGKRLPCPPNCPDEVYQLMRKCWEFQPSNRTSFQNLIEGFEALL

The term IC50 denotes the concentration that gives 50% inhibition. For `CC[C@H]1C[C@@](C#N)(C2CC2)C(=O)N1c1ccnn2cc(C3=NC(C)N=C3)cc12` (stereo partly drawn) [Example 19, (3S,5S)-3-cyclopropyl-5-ethyl-1-(6-(2-methyl-2H-imidazol-4-yl)pyrrolo[1,2-b]pyridazin-4-yl)-2-oxopyrrolidine-3-carbonitrile], the IC50 in assay [1] was over 10 µM; in assay [2], over 0.1 µM; in assay [3] it was over 10 µM; in assay [4], over 10 µM.
As for `C[C@@H]1CN(c2ccnn3cc(-c4cnn(C)c4)cc23)C(=O)[C@]1(C#N)C1COC1` [Example 20, (3S,4S)-4-methyl-1-(6-(1-methyl-1H-pyrazol-4-yl)pyrrolo[1,2-b]pyridazin-4-yl)-3-(oxetan-3-yl)-2-oxopyrrolidine-3-carbonitrile], the IC50 in assay [1] is over 10 µM; in assay [2] it was over 0.1 µM; in assay [3] it was 5 to 10 µM; in assay [4], over 10 µM.
With `C[C@@H]1CN(c2ccnn3cc(-c4cnn(C)c4)cc23)C(=O)[C@@]1(C#N)C1CC1` [Example 21, (3S,4S)-3-cyclopropyl-4-methyl-1-(6-(1-methyl-1H-pyrazol-4-yl)pyrrolo[1,2-b]pyridazin-4-yl)-2-oxopyrrolidine-3-carbonitrile], the IC50 in assay [1] was over 10 µM; in assay [2] it was over 0.1 µM; in assay [3], over 10 µM; in assay [4], over 10 µM.
With `CC[C@H]1CN(c2ccnn3cc(-c4cnn(C)c4)cc23)C(=O)[C@]1(C#N)C1CC1` [Example 24, (3R,4R)-3-cyclopropyl-4-ethyl-1-(6-(1-methyl-1H-pyrazol-4-yl)pyrrolo[1,2-b]pyridazin-4-yl)-2-oxopyrrolidine-3-carbonitrile], the IC50 is 5 to 10 µM in assay [1], over 0.1 µM in assay [2], 5 to 10 µM in assay [3] and over 10 µM in assay [4].
Regarding `CC[C@H]1CN(c2ccnn3cc(-c4cnn(C)c4)cc23)C(=O)[C@@]1(C#N)C1CC1` [Example 25, (3S,4R)-3-cyclopropyl-4-ethyl-1-(6-(1-methyl-1H-pyrazol-4-yl)pyrrolo[1,2-b]pyridazin-4-yl)-2-oxopyrrolidine-3-carbonitrile], the IC50 in assay [1] is over 10 µM; in assay [2], over 0.1 µM; in assay [3] it was over 10 µM; in assay [4], over 10 µM.
`CC[C@@H]1CN(c2ccnn3cc(-c4cnn(C)c4)cc23)C(=O)[C@@]1(C#N)C1CC1` [Example 26, (3S,4S)-3-cyclopropyl-4-ethyl-1-(6-(1-methyl-1H-pyrazol-4-yl)pyrrolo[1,2-b]pyridazin-4-yl)-2-oxopyrrolidine-3-carbonitrile]: the IC50 in assay [1] is over 10 µM; in assay [2], over 0.1 µM; in assay [3] it was over 10 µM; in assay [4] it was over 10 µM.
For `Cn1cc(-c2cc3c(N4CC[C@@](CC#N)(C5CC5)C4=O)ccnn3c2)cn1` [Example 27, (R)-2-(3-cyclopropyl-1-(6-(1-methyl-1H-pyrazol-4-yl)pyrrolo[1,2-b]pyridazin-4-yl)-2-oxopyrrolidin-3-yl)acetonitrile], the IC50 was 1 to 5 µM in assay [1], over 0.1 µM in assay [2], 1 to 5 µM in assay [3] and 1 to 5 µM in assay [4].
Turning to `C[C@H]1CN(c2ccnn3cc(-c4cnn(C)c4)cc23)C(=O)[C@@]1(C#N)C1CC1` [Example 29, (3S,4R)-3-cyclopropyl-4-methyl-1-(6-(1-methyl-1H-pyrazol-4-yl)pyrrolo[1,2-b]pyridazin-4-yl)-2-oxopyrrolidine-3-carbonitrile], the IC50 is over 10 µM in assay [1], over 0.1 µM in assay [2], over 10 µM in assay [3] and over 10 µM in assay [4].
As to `C[C@H]1C[C@](C#N)(C2CC2)C(=O)N1c1ccnn2cc(-c3cnn(C)c3)cc12` [Example 30, (3R,5S)-3-cyclopropyl-5-methyl-1-(6-(1-methyl-1H-pyrazol-4-yl)pyrrolo[1,2-b]pyridazin-4-yl)-2-oxopyrrolidine-3-carbonitrile], the IC50 in assay [1] was over 10 µM; in assay [2], over 0.1 µM; in assay [3], over 10 µM; in assay [4], over 10 µM.
For `C[C@H]1C[C@@](C#N)(C2CC2)C(=O)N1c1ccnn2cc(-c3cnn(C)c3)cc12` [Example 31, (3S,5S)-3-cyclopropyl-5-methyl-1-(6-(1-methyl-1H-pyrazol-4-yl)pyrrolo[1,2-b]pyridazin-4-yl)-2-oxopyrrolidine-3-carbonitrile], the IC50 is over 10 µM in assay [1], over 0.1 µM in assay [2], over 10 µM in assay [3] and over 10 µM in assay [4].
As for `CC[C@H]1C[C@](C#N)(C2CC2)C(=O)N1c1ccnn2cc(-c3cnn(C)c3)cc12` [Example 32, (3R,5S)-3-cyclopropyl-5-ethyl-1-(6-(1-methyl-1H-pyrazol-4-yl)pyrrolo[1,2-b]pyridazin-4-yl)-2-oxopyrrolidine-3-carbonitrile], the IC50 is over 10 µM in assay [1], over 0.1 µM in assay [2], over 10 µM in assay [3] and over 10 µM in assay [4].
Take `CC[C@@H]1C[C@](C#N)(C2CC2)C(=O)N1c1ccnn2cc(-c3cnn(C)c3)cc12` [Example 33, (3R,5R)-3-cyclopropyl-5-ethyl-1-(6-(1-methyl-1H-pyrazol-4-yl)pyrrolo[1,2-b]pyridazin-4-yl)-2-oxopyrrolidine-3-carbonitrile]: the IC50 is 5 to 10 µM in assay [1], over 0.1 µM in assay [2], 1 to 5 µM in assay [3] and 5 to 10 µM in assay [4].
With `C[C@@H]1CN(c2ccnn3cc(-c4ccnn4C)cc23)C(=O)[C@]1(C#N)C1CC1` [Example 49, (3R,4S)-3-cyclopropyl-4-methyl-1-(6-(1-methyl-1H-pyrazol-5-yl)pyrrolo[1,2-b]pyridazin-4-yl)-2-oxopyrrolidine-3-carbonitrile], the IC50 in assay [1] is 0.1 to 1 µM; in assay [2] it was 0.02 to 0.05 µM; in assay [3] it was 1 to 5 µM; in assay [4] it was 1 to 5 µM.
`C[C@@H]1CN(c2ccnn3cc(-c4cccnc4OC(F)F)cc23)C(=O)[C@]1(C#N)C1CC1` [Example 50, (3R,4S)-3-cyclopropyl-1-(6-(2-(difluoromethoxy)pyridin-3-y1)pyrrolo[1,2-b]pyridazin-4-yl)-4-methyl-2-oxopyrrolidine-3-carbonitrile]: the IC50 in assay [1] is 1 to 5 µM; in assay [2] it was 0.05 to 0.1 µM; in assay [3], 1 to 5 µM; in assay [4], 1 to 5 µM.
In the case of `C[C@@H]1CN(c2ccnn3cc(-c4cncc(C(F)(F)F)c4)cc23)C(=O)[C@]1(C#N)C1CC1` [Example 70, (3R,4S)-3-cyclopropyl-4-methyl-2-oxo-1-(6-(5-(trifluoromethyl)pyridin-3-yl)pyrrolo[1,2-b]pyridazin-4-yl)pyrrolidine-3-carbonitrile], the IC50 fell in the range of 1 to 5 µM in assay [1], 0.05 to 0.1 µM in assay [2], 1 to 5 µM in assay [3] and 1 to 5 µM in assay [4].
Turning to `COc1ncc(-c2cc3c(N4C[C@@H](C)[C@@](C#N)(C5CC5)C4=O)ccnn3c2)cn1` [Example 76, (3R,4S)-3-cyclopropyl-1-(6-(2-methoxypyrimidin-5-yl)pyrrolo[1,2-b]pyridazin-4-yl)-4-methyl-2-oxopyrrolidine-3-carbonitrile], the IC50 was in the range of 0.1 to 1 µM in assay [1], 0.05 to 0.1 µM in assay [2], 1 to 5 µM in assay [3] and 1 to 5 µM in assay [4].
In the case of `C[C@@H]1CN(c2ccnn3cc(-c4cccc5cnn(C)c45)cc23)C(=O)[C@]1(C#N)C1CC1` [Example 78, (3R,4S)-3-cyclopropyl-4-methyl-1-(6-(1-methyl-1H-indazol-7-yl)pyrrolo[1,2-b]pyridazin-4-yl)-2-oxopyrrolidine-3-carbonitrile], the IC50 was over 10 µM in assay [1], over 0.1 µM in assay [2], over 10 µM in assay [3] and over 10 µM in assay [4].
Consider `Cc1ncc(-c2cc3c(N4C[C@@H](C)[C@@](C#N)(C5CC5)C4=O)ccnn3c2)cn1` [Example 80, (3R,4S)-3-cyclopropyl-4-methyl-1-(6-(2-methylpyrimidin-5-yl)pyrrolo[1,2-b]pyridazin-4-yl)-2-oxopyrrolidine-3-carbonitrile], for which the IC50 lay within 1 to 5 µM in assay [1], 0.05 to 0.1 µM in assay [2], 1 to 5 µM in assay [3] and 1 to 5 µM in assay [4].
